Non-standard residues stand in square brackets, D forms with d. Residues, ends and D or L forms follow the SMILES beside them. *: point of attachment. Phenylacetyl(2,3,4,5,6-F5) = O=C(Cc1c(F)c(F)c(F)c(F)c1F)*; Phe(F5) = N[C@@H](Cc1c(F)c(F)c(F)c(F)c1F)C(=O)O; Phe(4-Cl) = N[C@@H](Cc1ccc(Cl)cc1)C(=O)O; hArg = N=C(N)NCCCC[C@H](N)C(=O)O; 12Ado = NCCCCCCCCCCCC(=O)O; Nle = CCCC[C@H](N)C(=O)O; Abu = CC[C@H](N)C(=O)O
Experiments:
[1] = system: pancreatic cancer PANC-1 xenograft; test: Xenograft tumor growth in nude mice, PANC-1; assay type: in vivo; conditions: Table 4A, Pancreatic Ca PANC-1, 7 weeks, 5 μg/day s.c.
Description: The peptides' activity was compared with GHRH antagonist MIA-602. All statistical analyzses were performed from comparing GHRA antagonists to non-treated tumor (control).
Peptides and chemicals. GHRH antagonists MIA-602 and AVR-GHRH antagonists (see Table 2 above) were synthesized by solid phase methods and purified by HPLC. The peptides were dissolved in DMSO and further diluted in 10% 1,2-propanediol. The final concentration of peptides was 50 µg/ml in 10% 1,2-propanediol containing 0.1% of DMSO.
(§1) Cell culture. Human cancer cell lines including pancreatic (PANC-1 and CFPAC-1), lung (HCC827 and H460), stomach (NCI-N87), prostate (PC3), brest (MX-1 and HCC-1806), colorectal (HT-29), and ovarian (SK-OV-3 and OVCAR-3) were obtained from the American Type Culture Collection (ATCC) and cultured at 37° C. in a humidified 95% air/5% CO2 atmosphere in the medium recommended by ATCC.
Xenograft models of human cancers in nude mice. Female athymic (NCr nu/nu) nude mice, 5- to 6-weeks-old, obtained from the Envigo labs (Tampa, Fla.), were housed in laminar airflow cabinets under pathogen-free conditions with a 12-h light/12-h dark schedule, and were fed autoclaved standard chow and water. To generate mice with xenografted tumors, tumor xenografts were initiated by subcutaneous (s.c.) injection of 107 human cancer cells into female nude mice. After about 4 weeks the resulting tumors were dissected and collected after removing necrosis tissues. The tumors were then cut into particles with size of 3 mm3 and transplanted s.c. by trocar needle into experimental animals. When tumors grew to the size of 50-60 mm3 (by volume), mice were randomized into groups and treated daily for 4-8 weeks by subcutaneous administration of 5 μg of GHRH antagonists MIA-602 or AVR-compounds (2-10 μg as indicated), or vehicle solutions (0.1% DMSO in 10% 1,2-propanediol) respectively. Tumor sizes were measured weekly.
Statistical analysis. One-way ANOVA followed by Bonferroni comparison were performed. Data are expressed as Mean±SEM. To determine statistical significance between animal groups, two-tailed Student's t-test was conducted. Differences were considered significant when p<0.05.
Results. […] FIG. 1A-N represents in vivo inhibition of tumor growth during the treatment with GHRH antagonist MIA-602 and selected AVR antagonists in nude mice xenografted with various human tumors including pancreatic cancer PANC-1 (FIG. 1A) and CFPAC-1 (FIG. 1I); lung cancer HCC827 (FIGS. 1B, C) and H460 (FIG. 1H); stomach cancer N87 (FIGS. 1D-F); colon cancer HT-29 (FIG. 1G); breast cancer MX-1 and HCC-1806 (FIGS. 1J, K); ovarian cancer SK-OV-3 and OVACAR-3 (FIGS. 1 L, M) and prostate cancer PC3 (FIG. 1N). See also Table 5.

[2] = system: KATOIII stomach cancer cells; test: In vitro cell viability, KATOIII; assay type: cell-based, human; conditions: antagonist 5 μM for 72 h, cell proliferation assay; MIA602 = 1
Method in brief: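 Cells grown to ~60% confluence, serum-starved 24 h in 0.5% FBS, then treated with antagonists at 1, 2.5 or 5 μM or vehicle (0.1% DMSO) in quintuplicate for 72 h, medium replaced every 48 h. Viability read by MTS-type CellTiter 96 AQueous One assay; expressed as inhibitory potency relative to MIA602.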

[3] = system: J82 urothelial cancer cells; test: In vitro cell viability, J82; assay type: cell-based, human; conditions: antagonist 5 μM for 72 h, cell proliferation assay; MIA602 = 1
Description: (§2) The inhibitory effects of the various synthesized GHRH antagonists were tested in cell proliferation assays in various human cancer cell lines including stomach cancer (KATOIII, N87), colon cancer (HT-29), urothelial cancer (J82, RT4), pancreatic cancer (PANC-1, CFPAC-1), prostatic cancer (PC3), breast cancer (MX-1, HCC1806), ovarian cancer (SK-OV-3, OVCAR-3) and lung cancer (HCC827, H460).
as §1, with “(NCI-N87 and KATOIII), urothelial (J82, RT4), prostatic” for “(NCI-N87), prostate”, “breast” for “brest”, “HCC 1806),” for “HCC-1806),”
(§3) In vitro cell viability. Cell viability was analyzed as follows: cancer cells including pancreatic (PANC-1 and CFPAC-1), lung (HCC827 and H460), stomach (NCI-N87 and KATOIII), urothelial (J82, RT4), prostatic (PC3) and breast (MX-1 and HCC 1806), colorectal (HT-29) and ovarian (SK-OV-3 and OVCAR-3) were grown on 96 well plates to ˜60% confluence, the cells were starved for 24 h in culture medium containing 0.5% FBS. Cells were then treated with GHRH antagonists MIA602 AVR compounds at concentrations of 1, 2.5 or 5 μM, or vehicle (0.1% DMSO) in quintuplicates for 72 hours. The medium was replaced every 48 hours. Cell viability was measured using CellTiter 96 aqueous one solution kit (Promega). Inhibitory effects of tested AVR compounds in comparison to that of MIA602 are presented as inhibitory potency.
(§4) Inhibitory effects of selected AVR compounds in comparison to that of MIA602 are presented as inhibitory potency (e.g., percentage of inhibition). […] The cell lines tested including lung cancer HCC827 (FIG. 2A), pancreatic cancer CFPAC-1 (FIG. 2B), stomach cancer N87 (FIG. 2C), colon cancer HT-29 (FIG. 2D), breast cancers MX-1 and HCC1806 (FIGS. 2 E, F). Based on the results of cell proliferation assay after cancer cells were treated with antagonist at concentration of 5 μM for 72H, the relative inhibitory potency of AVR antagonists in comparison to MIA-602 is summarized in Table 3 A and B. Over 60 AVR compounds were tested in 12 cancer cell lines.

[4] = system: PANC-1 pancreatic cancer cells; test: In vitro cell viability, PANC-1; assay type: cell-based, human; conditions: antagonist 5 μM for 72 h, cell proliferation assay; MIA602 = 1
Description: as §2
as §1, with “(NCI-N87 and KATOIII), urothelial (J82, RT4), prostatic” for “(NCI-N87), prostate”, “breast” for “brest”, “HCC 1806),” for “HCC-1806),”
as §3, §4

[5] = system: HCC1806 breast cancer cells; test: In vitro cell viability, HCC1806; assay type: cell-based, human; conditions: Table 3B; 5 μM for 72 H; MIA-602 = 1
Description: as §2
as §1, with “(NCI-N87 and KATOIII), urothelial (J82, RT4), prostatic” for “(NCI-N87), prostate”, “breast” for “brest”, “HCC 1806),” for “HCC-1806),”
as §3, §4
(§5) Based on the results of cell proliferation assay after cancer cells were treated with antagonist at concentration of 5 µM for 72H, * at concentration of 2 µM for 72 H.

MX-1 breast cancer cells = test: In vitro cell viability, MX-1; assay type: cell-based, human; conditions: Table 3B; 5 μM for 72 H; MIA-602 = 1
Description: as §2
as §1, with “(NCI-N87 and KATOIII), urothelial (J82, RT4), prostatic” for “(NCI-N87), prostate”, “breast” for “brest”, “HCC 1806),” for “HCC-1806),”
as §3, §4, §5

With `CCCC[C@H](NC(=O)[C@@H](NC(=O)[C@H](CC(=O)O)NC(=O)[C@H](CCC(N)=O)NC(=O)[C@H](CC(C)C)NC(=O)[C@H](CC(C)C)NC(=O)[C@H](CCCCN)NC(=O)[C@H](CCCNC(=N)N)NC(=O)[C@H](C)NC(=O)[C@H](CO)NC(=O)[C@H](CC(C)C)NC(=O)[C@H](CCC(N)=O)NC(=O)[C@H](CC)NC(=O)[C@H](CC(C)C)NC(=O)[C@@H](NC(=O)[C@H](CCCCN)NC(=O)[C@H](CCCNC(=N)N)NC(=O)[C@H](Cc1ccc(OC)cc1)NC(=O)[C@H](CCCCNC(=N)N)NC(=O)[C@H](CC(N)=O)NC(=O)[C@@H](NC(=O)[C@H](Cc1ccc(Cl)cc1)NC(=O)[C@@H](NC(=O)[C@H](C)NC(=O)[C@H](CC(=O)O)NC(=O)[C@@H](CCCNC(=N)N)NC(=O)[C@H](Cc1ccc(O)cc1)NC(=O)CCCCCCCCCCCNC(=O)Cc1c(F)c(F)c(F)c(F)c1F)[C@@H](C)CC)[C@@H](C)O)C(C)C)[C@@H](C)CC)C(=O)N[C@H](CCCNC(=N)N)C(=O)N[C@@H](CCCCNC(=N)N)C(=O)NCCCCCCCCCCCC(N)=O` [AVR-333, 5FPhAC-Ada-Tyr-DArg-Asp-Ala-Ile-Cpa-Thr-Asn-Har-Tyr(Me)-Arg-Lys-Val-Leu-Abu-Gln-Leu-Ser-Ala-Arg-Lys-Leu-Leu-Gln-Asp-Ile-Nle-DArg-Har-Ada-NH2] ({Phenylacetyl(2,3,4,5,6-F5)-12Ado}-Y[dR]DAI[Phe(4-Cl)]TN[hArg]Y(Me)RKVL[Abu]QLSARKLLQDI[Nle][dR][hArg][12Ado]-NH2) the “Tumor Growth %” value [1] was 1384.4% and the “% Inhibition” value ([1]; vs control) was 48.2%.

In the case of `CCCC[C@H](NC(=O)[C@@H](NC(=O)[C@H](CC(=O)O)NC(=O)[C@H](CCC(N)=O)NC(=O)[C@H](CC(C)C)NC(=O)[C@H](CC(C)C)NC(=O)[C@H](CCCCN)NC(=O)[C@H](CCCNC(=N)N)NC(=O)[C@H](C)NC(=O)[C@H](CO)NC(=O)[C@H](CC(C)C)NC(=O)[C@H](CCC(N)=O)NC(=O)[C@H](CC)NC(=O)[C@H](CC(C)C)NC(=O)[C@@H](NC(=O)[C@H](CCCCN)NC(=O)[C@H](CCCNC(=N)N)NC(=O)[C@H](Cc1ccc(OC)cc1)NC(=O)[C@H](CCCCNC(=N)N)NC(=O)[C@H](C)NC(=O)[C@@H](NC(=O)[C@H](Cc1c(F)c(F)c(F)c(F)c1F)NC(=O)[C@@H](NC(=O)[C@H](C)NC(=O)[C@H](CC(=O)O)NC(=O)[C@@H](CCCNC(=N)N)NC(=O)[C@H](Cc1ccc(O)cc1)NC(=O)CCCCCCCCCCCNC(=O)Cc1c(F)c(F)c(F)c(F)c1F)[C@@H](C)CC)[C@@H](C)O)C(C)C)[C@@H](C)CC)C(=O)N[C@H](CCCNC(=N)N)C(=O)N[C@@H](CCCCNC(=N)N)C(=O)NC` [AVR-235] ({Phenylacetyl(2,3,4,5,6-F5)-12Ado}-Y[dR]DAI[Phe(F5)]TA[hArg]Y(Me)RKVL[Abu]QLSARKLLQDI[Nle][dR][hArg]-NHMe), the “relative inhibitory potency in comparison to MIA-602, Stomach KATOIII” value [2] is reported as 1.220, the “relative inhibitory potency in comparison to MIA-602, Urothelial J82” value [3] is reported as 1.518 and the “relative inhibitory potency in comparison to MIA-602, Pancreatic Panc-1” value [4] is reported as 1.139.

`CCCC[C@H](NC(=O)[C@@H](NC(=O)[C@H](CC(=O)O)NC(=O)[C@H](CCC(N)=O)NC(=O)[C@H](CC(C)C)NC(=O)[C@H](CC(C)C)NC(=O)[C@H](CCCCN)NC(=O)[C@H](CCCNC(=N)N)NC(=O)[C@H](C)NC(=O)[C@H](CO)NC(=O)[C@H](CC(C)C)NC(=O)[C@H](CCC(N)=O)NC(=O)[C@H](CC)NC(=O)[C@H](CC(C)C)NC(=O)[C@@H](NC(=O)[C@H](CCCCN)NC(=O)[C@H](CCCNC(=N)N)NC(=O)[C@H](Cc1c(F)c(F)c(F)c(F)c1F)NC(=O)[C@H](CCCCNC(=N)N)NC(=O)[C@H](C)NC(=O)[C@@H](NC(=O)[C@H](Cc1ccc(Cl)cc1)NC(=O)[C@@H](NC(=O)[C@H](C)NC(=O)[C@H](CC(=O)O)NC(=O)[C@@H](CCCNC(=N)N)NC(=O)[C@H](Cc1ccc(O)cc1)NC(=O)CCCCCCCCCCCNC(=O)Cc1c(F)c(F)c(F)c(F)c1F)[C@@H](C)CC)[C@@H](C)O)C(C)C)[C@@H](C)CC)C(=O)N[C@H](CCCNC(=N)N)C(=O)N[C@@H](CCCCNC(=N)N)C(=O)NCCCCCCCCCCCC(=O)NC` [AVR-354] ({Phenylacetyl(2,3,4,5,6-F5)-12Ado}-Y[dR]DAI[Phe(4-Cl)]TA[hArg][Phe(F5)]RKVL[Abu]QLSARKLLQDI[Nle][dR][hArg][12Ado]-NHMe) was tested, and the “In vitro relative inhibitory potency in comparison to MIA-602, HCC-1806” value [5] was 3.991 and the “In vitro relative inhibitory potency in comparison to MIA-602, MX-1” value (MX-1 breast cancer cells) was 1.594.

Reference: patent US20210395327A1, “Growth Hormone-Releasing Hormone Antagonists and Uses Thereof” (United States Government As Represented By The Department …, priority 2019, published 2021)
